Tests used:
[1] = biological target: T1, cereblon to IKZF1 (Homo sapiens, UniProt Q96SW2); assay: Cereblon binding assay with cell extracts (anti-HA immunoprecipitation), IKZF1; settings: wild-type FLAG-HA-CRBN; compound added directly into the binding assay
T1 construct: expressed in transfected cells; host or cells: 293FT CRBN-/- cells (transient transfection; cell extracts, anti-HA immunoprecipitation)
Text: FIG. 3A illustrates FLAG-HA tagged cereblon wild-type (FLAG-HA-CRBN) or Y384A/W386A mutant (FLAG-HA-YWAA) produced in 293FT CRBN−/− cells was used to capture V5 tagged GSPT1 (GSPT1-V5) and V5 tagged IKZF1 (IKZF1-V5) transiently expressed in 293FT CRBN−/− cells. […] FIG. 3B illustrates the surface representation of GSPT1 in complex with cereblon, DDB1 and Compound D, with DDB1 shown in purple, cereblon in blue, and GSPT1 in orange. The position of Compound D is shown with a white arrow. FIG. 3C illustrates the Fo-Fc omit electron density (green mesh) for Compound D (yellow sticks) contoured at 3.06. […] Hydrogen bond interactions between cereblon and the GPST1 β-hairpin are shown as yellow dashes. FIG. 3E illustrates details of the binding interface between cereblon and GSPT1. Compound D is represented as yellow sticks. Predicted polar interactions between Compound D and cereblon are shown as yellow dashes. FIG. 3F illustrates the immunoblot analysis of U937 parental cells or cells stably expressing HA-GSPT1-G575N. Cells were treated with DMSO or Compound D at the indicated concentrations. FIGS. 3G and 311 illustrate the immunoblot analysis (left panel) and cell proliferation (right panel) of MOLM-13 (FIG. 3G) and OCI-AML2 (FIG. 311) parental cells and cells stably expressing HA tagged GSPT1-G575N. Cells were treated with DMSO or Compound D at indicated concentrations.

[2] = system: ATF4 target genes ATF3, CHOP and DDIT4; assay: Quantitative RT-PCR of ATF4 target genes; assay type: cell-based, human
Protocol: The U937 GCN2−/− cell line is derived from a single clone of U937 parental cells stably infected with a lentiviral CRISPR vector targeting GCN2. […] Cells were incubated with DMSO or 200 nM Compound D and lysed at the indicated time points. Arrows pointing to bands in the blot on the right designate the cleaved forms of caspase-3. […] The U937 GCN2−/− cell line is derived from a single clone of U937 parental cells stably infected with a lentiviral CRISPR vector targeting GCN2. […] Cells were treated with DMSO or Compound D for 24 hours. On day 3 after Compound D treatment, cell proliferation was assessed by CTG. Result shown in all figure panels is representative of at least three biological replicates. Data in FIGS. 13C, 13D and 13E are shown as mean±SD, n=3 technical replicates.
Specifically, following incubation with DMSO or Compound D, cells were collected via centrifugation at 2000 rpm for 2 minutes. Cell pellets were then washed once in ice-cold PBS and snap-frozen in liquid nitrogen. […] The cDNA transcripts of GADPH, DDIT3 (CHOP), DDIT4 (REDD), and ATF3 were quantified by the ViiA™ 7 Real-Time PCR System using TaqMan Gene Expression Assay probes (Invitrogen). The cDNA level of various CRBN transcripts was quantified using RT^2 SYBR Green qPCR Mastermixes (Qiagen). […]

T1 sequence (Q96SW2 whole entry): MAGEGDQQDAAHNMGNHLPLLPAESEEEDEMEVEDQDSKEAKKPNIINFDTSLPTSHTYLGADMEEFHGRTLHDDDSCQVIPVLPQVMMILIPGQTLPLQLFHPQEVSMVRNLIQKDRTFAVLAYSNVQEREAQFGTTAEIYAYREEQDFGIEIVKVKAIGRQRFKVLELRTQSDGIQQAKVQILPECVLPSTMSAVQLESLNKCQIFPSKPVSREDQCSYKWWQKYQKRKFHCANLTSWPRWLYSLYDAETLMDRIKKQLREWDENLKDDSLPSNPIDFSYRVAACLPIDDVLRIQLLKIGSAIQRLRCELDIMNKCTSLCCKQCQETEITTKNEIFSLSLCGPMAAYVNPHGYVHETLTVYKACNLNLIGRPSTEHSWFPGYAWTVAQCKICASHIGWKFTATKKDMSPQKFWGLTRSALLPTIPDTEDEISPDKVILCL

In the case of `O=C1CCC(N2Cc3cc(CNC(=O)C(F)(F)c4ccc(Cl)cc4)ccc3C2=O)C(=O)N1` (stereo not drawn) [Compound D, 2-(4-chlorophenyl)-N-((2-(2,6-dioxopiperidin-3-yl)-1-oxoisoindolin-5-yl)methyl)-2,2-difluoroacetamide], the “binding of cereblon to IKZF1” value [1] is reported as “not IKZF1”, the “mRNA level of ATF4 target genes” value ([2]; U937 24 hours, KG-1 200 nM for 2, 4 or 6 hours) is reported as “marked induction of ATF4 target genes ATF3, CHOP and DDIT4 at the mRNA level” and the “induction of ATF3 and CHOP after GCN2 loss” value ([2]; U937 GCN2-/-, 24 hours) is reported as “largely, but not completely, blocked the induction of other ATF4 target genes ATF3 and CHOP”.

Source: patent US20220389515A1, “USE OF BIOMARKERS TO PREDICT CLINICAL SENSITIVITY TO 2-(4-CHLOROPHENYL)-N-((2-(2,6-DIOXOPIPERIDIN-3-YL)-1-OXOISOINDOLIN-5-YL)METHYL)-2,2-DIFLUOROACETAMIDE” (priority 2019, published 2022)
